Results taken from ChEMBL document CHEMBL3271944, “Biologically active polycycloalkanes. 2. Antiviral 4-homoisotwistane derivatives” (J Med Chem, 1976).
In brackets after ≈: the same amount, converted by molar mass. Structures can show the parent of a compound that is named as a salt.

What was measured:
[1] = Cytotoxicity against CEF after 24 hrs by microscopic analysis; parameters: species or system Gallus gallus; settings: chicken; for MCC at 24 h: CEF cells; for MCC: 24 h
[2] = test system: Newcastle disease virus; assay: Antiviral activity against Newcastle disease virus Miyadera infected in CEF assessed as suppression of <= 1% hemagglutinating activity by tube assay; assay type: functional; settings: avian paramyxovirus 1, Miyadera
[3] = test system: Newcastle disease virus; assay: Ratio of amantadine hydrochloride MIC to compound MIC for Newcastle disease virus Miyadera infected in CEF; assay type: functional, avian paramyxovirus 1
[4] = Ratio of MCC for CEF to MIC for Newcastle disease virus Miyadera infected in CEF

O=C(O)C12CCCC3CC(CCC31)C2 (stereo not given)
MCC at 24 h [1]: 10000 µM
MIC [2]: 10000 µM (≈ 1940 µg/mL)

O=C(NC1CCCCC1)C12CCCC3CC(CCC31)C2 (stereo not given)
MCC at 24 h [1]: 2250 µM
MIC [2]: 2250 µM (≈ 620 µg/mL)

Cl.NCC12CCCC3CC(CCC31)C2 (stereo not given)
MCC at 24 h [1]: 90 µM
Ratio [3]: 30
MIC [2]: 45 µM
Ratio [4]: 2

CCCCCCCCOC(=O)C12CCCC3CC(CCC31)C2 (stereo not given)
MCC at 24 h [1]: 490 µM
MIC [2]: 330 µM (≈ 101 µg/mL)

C1=C2CCCC3CC1CCC23 (stereo not given)
MCC [1]: ND(Unstable)

C1CC2CC3CCC2C(C1)C3
MCC at 24 h [1]: 670 µM
MIC [2]: 670 µM (≈ 101 µg/mL)

O=C(Cl)C12CCCC3CC(CCC31)C2 (stereo not given)
MCC [1]: ND(Unstable)

COC(=O)C12CCCC3CC(CCC31)C2 (stereo not given)
MCC at 24 h [1]: 80 µM
MIC [2]: 80 µM (≈ 16.7 µg/mL)

NC(=O)C12CCCC3CC(CCC31)C2 (stereo not given)
MCC at 24 h [1]: 5200 µM
MIC [2]: 2600 µM (≈ 503 µg/mL)

O=C(NC12CC3CC(CC(C3)C1)C2)C12CCCC3CC(CCC31)C2 (stereo not given)
MCC at 24 h [1]: 2000 µM
MIC [2]: 7500 µM (≈ 2460 µg/mL)

OC12CCCC3CC(CCC31)C2 (stereo not given)
MCC at 24 h [1]: 6000 µM
MIC [2]: 3000 µM (≈ 499 µg/mL)

OCC12CCCC3CC(CCC31)C2 (stereo not given)
MCC at 24 h [1]: 870 µM
MIC [2]: 440 µM (≈ 79.3 µg/mL)

NC12CC3CC(CC(C3)C1)C2 [AMANTADINE HYDROCHLORIDE]
MCC at 24 h [1]: 1300 µM
MIC [2]: 1300 µM

O=C1C2CCC3C(CCCC13)C2 (stereo not given)
MCC at 24 h [1]: 2400 µM
MIC [2]: 1200 µM (≈ 197 µg/mL)

O[C@H]1C2CCCC3C[C@H]1CC[C@H]32 (relative stereo)
MCC at 24 h [1]: 1800 µM
MIC [2]: 900 µM (≈ 150 µg/mL)

N#CC12CCCC3CC(CCC31)C2 (stereo not given)
MCC at 24 h [1]: 850 µM
MIC [2]: 570 µM (≈ 99.9 µg/mL)

CCCCNC(=O)C12CCCC3CC(CCC31)C2 (stereo not given)
MCC at 24 h [1]: 300 µM
MIC [2]: 625 µM (≈ 156 µg/mL)

CC(=O)NC12CCCC3CC(CCC31)C2 (stereo not given)
MCC at 24 h [1]: 3000 µM
MIC [2]: 750 µM (≈ 155 µg/mL)

CNC(=O)C12CCCC3CC(CCC31)C2 (stereo not given)
MCC at 24 h [1]: 750 µM
MIC [2]: 3000 µM (≈ 622 µg/mL)

Cl.NC12CCCC3CC(CCC31)C2 (stereo not given)
MCC at 24 h [1]: 200 µM
Ratio [3]: 30
MIC [2]: 25 µM
Ratio [4]: 2

O[C@@H]1C2CCCC3C[C@@H]1CC[C@@H]32 (relative stereo)
MCC at 24 h [1]: 750 µM
MIC [2]: 750 µM (≈ 125 µg/mL)

BrC12CCCC3CC(CCC31)C2 (stereo not given)
MCC [1]: ND(Unstable)
